Data published in publication PMC8391922, “The Combined Effect of Branching and Elongation on the Bioactivity Profile of Phytocannabinoids. Part I: Thermo-TRPs” (Biomedicines, 2021).
Where two headings read alike, the source gives them in different places.

Key:
rat TRPA1 [1] = target: T1, rat TRPA1 (Rattus norvegicus, UniProt Q6RI86); parameters: method as in PMID 21175579; conditions: cited from earlier work; for TRPA1 Efficacy (%ITC 100 μM): percentage of the effect of 100 μM allylisothiocyanate; for IC50: against agonist AITC 100 μM
T1 construct: expressed in transfected cells; host or cells: HEK-293

human TRPV1 [2] = target: T2, human TRPV1 (Homo sapiens, UniProt Q8NER1); parameters: method as in PMID 21175579
T2 construct: expressed in transfected cells; host or cells: HEK-293

rat TRPV2 = target: T3, rat TRPV2 (Rattus norvegicus, UniProt Q9WUD2); parameters: method as in PMID 21175579, PMID 21726418; conditions: cited from earlier work; for TRPV2 Efficacy (% IM 4 μM): percentage of the response to ionomycin 4 μM
T3 construct: expressed in transfected cells; host or cells: HEK-293
T3 sequence (Q9WUD2 1-761): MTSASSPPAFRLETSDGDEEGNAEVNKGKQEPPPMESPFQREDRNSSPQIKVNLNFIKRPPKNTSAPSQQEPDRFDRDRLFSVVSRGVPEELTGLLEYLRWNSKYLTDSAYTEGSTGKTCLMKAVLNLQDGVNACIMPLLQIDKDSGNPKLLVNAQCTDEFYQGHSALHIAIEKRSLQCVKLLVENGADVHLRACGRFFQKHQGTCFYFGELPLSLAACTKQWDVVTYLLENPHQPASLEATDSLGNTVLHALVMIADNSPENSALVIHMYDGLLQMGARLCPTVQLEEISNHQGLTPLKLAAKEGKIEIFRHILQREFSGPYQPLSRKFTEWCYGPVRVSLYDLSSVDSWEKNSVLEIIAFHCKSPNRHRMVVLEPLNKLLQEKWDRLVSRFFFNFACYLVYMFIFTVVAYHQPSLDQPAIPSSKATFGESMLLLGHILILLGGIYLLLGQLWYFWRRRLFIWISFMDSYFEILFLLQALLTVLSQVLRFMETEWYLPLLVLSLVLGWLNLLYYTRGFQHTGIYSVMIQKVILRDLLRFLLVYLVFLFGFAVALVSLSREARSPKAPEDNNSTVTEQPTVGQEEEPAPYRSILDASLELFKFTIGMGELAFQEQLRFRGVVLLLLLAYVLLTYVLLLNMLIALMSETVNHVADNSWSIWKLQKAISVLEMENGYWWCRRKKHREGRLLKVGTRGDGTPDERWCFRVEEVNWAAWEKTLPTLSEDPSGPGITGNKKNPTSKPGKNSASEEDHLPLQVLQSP

rat TRPV4 = target: T4, rat TRPV4 (Rattus norvegicus, UniProt Q9ERZ8); parameters: method as in PMID 21175579, PMID 21726418
T4 construct: expressed in transfected cells; host or cells: HEK-293

rat TRPV3 = target: T5, rat TRPV3 (Rattus norvegicus, UniProt Q4QYD9); parameters: method as in PMID 21175579, PMID 21726418
T5 construct: expressed in transfected cells; host or cells: HEK-293
T5 sequence (Q4QYD9 1-791): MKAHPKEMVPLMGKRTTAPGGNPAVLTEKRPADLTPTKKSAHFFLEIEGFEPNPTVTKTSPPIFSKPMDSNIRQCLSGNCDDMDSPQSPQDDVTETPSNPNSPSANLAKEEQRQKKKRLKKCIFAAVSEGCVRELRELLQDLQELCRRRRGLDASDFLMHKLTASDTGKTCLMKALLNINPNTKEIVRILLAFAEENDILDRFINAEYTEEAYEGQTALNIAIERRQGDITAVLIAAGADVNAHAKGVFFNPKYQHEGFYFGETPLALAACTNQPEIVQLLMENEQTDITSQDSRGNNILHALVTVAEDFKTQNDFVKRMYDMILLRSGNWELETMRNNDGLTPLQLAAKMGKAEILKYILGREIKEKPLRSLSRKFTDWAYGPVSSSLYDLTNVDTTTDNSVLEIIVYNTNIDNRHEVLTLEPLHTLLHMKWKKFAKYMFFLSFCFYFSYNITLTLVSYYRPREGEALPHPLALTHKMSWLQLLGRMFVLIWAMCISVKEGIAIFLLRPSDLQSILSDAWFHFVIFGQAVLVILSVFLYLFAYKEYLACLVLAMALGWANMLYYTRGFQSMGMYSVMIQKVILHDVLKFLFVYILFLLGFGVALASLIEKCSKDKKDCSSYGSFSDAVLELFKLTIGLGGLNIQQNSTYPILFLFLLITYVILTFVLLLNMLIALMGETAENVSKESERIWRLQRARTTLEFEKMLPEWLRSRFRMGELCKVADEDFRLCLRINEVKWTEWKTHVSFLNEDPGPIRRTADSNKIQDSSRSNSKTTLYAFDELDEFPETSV

rat TRPM8 [3] = target: T6, rat TRPM8 (Rattus norvegicus, UniProt Q8R455); parameters: method as in PMID 21175579; conditions: against agonist icilin 0.25 μM; read-out: IC50 TRPM8; cited from earlier work
T6 construct: expressed in transfected cells; host or cells: HEK-293

human TRPV1 [4] = target: T2, human TRPV1; test: TRPV1-mediated elevation of intracellular Ca2+ (Fluo-4) in transfected HEK-293 cells; assay type: cell-based
Method: (§1) Assays of rat TRPA1, TRPV2, TRPV3, TRPV4, and TRPM8 or human TRPV1 mediated elevation of intracellular Ca ^2+ in transfected HEK-293 cells were performed with a continuous monitoring of [Ca ^2+]i during the experiments. […] Cell fluorescence before and after the addition of various concentrations of test compounds was measured, normalizing the effects against the response to ionomycin (IM, 4 μM). The values of the effect on [Ca^2+]i in HEK-293 cells not transfected were used as baseline and subtracted from the values obtained from transfected cells. For TRPA1, agonist efficacy was expressed as a percentage of the effect on [Ca ^2+]i observed with 100 μM allylisothiocyanate. […] In the TRPV3 assay, TRPV3-expressing HEK293 cells were first sensitized with the structurally unrelated agonist 2-aminoethoxydiphenyl borate (100 μM). Antagonist/desensitizing behavior is evaluated against the agonist of the TRP analyzed by adding the compounds directly in the quartz cuvette 5 min before stimulation of cells with the agonist. […] Dose-response curve fitting (sigmoidal dose-response variable slope) and parameter estimation were performed with Graph-Pad Prism8 (GraphPad Software Inc., San Diego, CA, USA). All determinations were performed at least in triplicate.

rat TRPM8 [5] = target: T6, rat TRPM8; test: TRPM8 antagonism of icilin-induced intracellular Ca2+ elevation (Fluo-4) in transfected HEK-293 cells; assay type: cell-based; conditions: IC50 TRPM8, antagonist; compound added 5 min before agonist icilin 0.25 μM
Method: as §1

rat TRPA1 [6] = target: T1, rat TRPA1; test: TRPA1-mediated elevation of intracellular Ca2+ (Fluo-4) in transfected HEK-293 cells; assay type: cell-based
Method: as §1

[7] = percentage of the response to ionomycin 4 μM; cited from earlier work

T1 sequence (Q6RI86 whole entry): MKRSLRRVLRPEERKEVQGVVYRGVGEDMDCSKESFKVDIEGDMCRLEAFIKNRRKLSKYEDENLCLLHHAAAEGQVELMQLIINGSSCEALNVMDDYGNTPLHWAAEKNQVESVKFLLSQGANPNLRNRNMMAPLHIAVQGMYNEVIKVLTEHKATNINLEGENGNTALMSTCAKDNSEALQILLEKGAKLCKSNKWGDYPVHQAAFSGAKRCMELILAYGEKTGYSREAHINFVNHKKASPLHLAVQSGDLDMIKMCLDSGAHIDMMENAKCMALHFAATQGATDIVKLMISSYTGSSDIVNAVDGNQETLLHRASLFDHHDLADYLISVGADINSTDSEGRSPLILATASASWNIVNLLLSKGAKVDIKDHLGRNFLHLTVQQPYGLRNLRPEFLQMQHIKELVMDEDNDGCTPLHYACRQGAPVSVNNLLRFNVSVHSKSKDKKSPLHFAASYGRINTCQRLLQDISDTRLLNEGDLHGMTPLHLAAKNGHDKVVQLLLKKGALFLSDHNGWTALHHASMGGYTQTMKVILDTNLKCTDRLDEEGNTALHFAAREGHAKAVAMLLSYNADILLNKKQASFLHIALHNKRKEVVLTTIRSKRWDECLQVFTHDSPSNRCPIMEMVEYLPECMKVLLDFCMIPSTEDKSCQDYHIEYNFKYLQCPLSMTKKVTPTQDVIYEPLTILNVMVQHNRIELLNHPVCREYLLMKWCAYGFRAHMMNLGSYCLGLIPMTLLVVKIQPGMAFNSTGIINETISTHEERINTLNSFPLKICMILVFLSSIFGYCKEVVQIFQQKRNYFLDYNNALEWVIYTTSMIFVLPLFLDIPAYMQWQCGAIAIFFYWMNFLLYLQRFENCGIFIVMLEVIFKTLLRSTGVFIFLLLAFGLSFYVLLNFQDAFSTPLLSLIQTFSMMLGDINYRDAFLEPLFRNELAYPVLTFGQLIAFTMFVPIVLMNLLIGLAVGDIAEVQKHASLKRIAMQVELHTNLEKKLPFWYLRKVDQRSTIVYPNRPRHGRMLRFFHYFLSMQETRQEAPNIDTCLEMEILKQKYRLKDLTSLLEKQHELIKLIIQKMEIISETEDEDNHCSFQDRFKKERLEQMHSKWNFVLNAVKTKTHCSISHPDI
T4 sequence (Q9ERZ8 whole entry): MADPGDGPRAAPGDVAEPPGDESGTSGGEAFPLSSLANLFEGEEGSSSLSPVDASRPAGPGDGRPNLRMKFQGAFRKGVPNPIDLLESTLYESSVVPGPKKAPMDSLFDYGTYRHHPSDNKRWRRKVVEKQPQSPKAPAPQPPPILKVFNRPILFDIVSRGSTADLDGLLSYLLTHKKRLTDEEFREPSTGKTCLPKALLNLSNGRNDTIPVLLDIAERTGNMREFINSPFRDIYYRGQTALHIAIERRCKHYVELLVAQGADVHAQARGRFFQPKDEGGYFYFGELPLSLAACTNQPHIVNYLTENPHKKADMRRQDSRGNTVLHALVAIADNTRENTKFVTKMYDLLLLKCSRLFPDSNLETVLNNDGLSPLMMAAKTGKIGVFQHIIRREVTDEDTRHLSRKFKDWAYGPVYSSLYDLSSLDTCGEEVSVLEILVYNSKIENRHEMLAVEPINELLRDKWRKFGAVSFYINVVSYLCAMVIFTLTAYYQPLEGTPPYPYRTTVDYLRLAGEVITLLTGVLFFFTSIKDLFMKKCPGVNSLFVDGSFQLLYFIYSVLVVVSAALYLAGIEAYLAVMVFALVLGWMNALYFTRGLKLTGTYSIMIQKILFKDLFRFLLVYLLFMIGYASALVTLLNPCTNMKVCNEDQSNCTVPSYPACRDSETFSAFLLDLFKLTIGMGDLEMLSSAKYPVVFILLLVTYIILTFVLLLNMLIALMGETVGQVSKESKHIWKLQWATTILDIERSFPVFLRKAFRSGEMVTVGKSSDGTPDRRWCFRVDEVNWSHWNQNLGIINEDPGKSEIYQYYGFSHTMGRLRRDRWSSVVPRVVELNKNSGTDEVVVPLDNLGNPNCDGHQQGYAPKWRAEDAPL
T2 sequence (Q8NER1 whole entry): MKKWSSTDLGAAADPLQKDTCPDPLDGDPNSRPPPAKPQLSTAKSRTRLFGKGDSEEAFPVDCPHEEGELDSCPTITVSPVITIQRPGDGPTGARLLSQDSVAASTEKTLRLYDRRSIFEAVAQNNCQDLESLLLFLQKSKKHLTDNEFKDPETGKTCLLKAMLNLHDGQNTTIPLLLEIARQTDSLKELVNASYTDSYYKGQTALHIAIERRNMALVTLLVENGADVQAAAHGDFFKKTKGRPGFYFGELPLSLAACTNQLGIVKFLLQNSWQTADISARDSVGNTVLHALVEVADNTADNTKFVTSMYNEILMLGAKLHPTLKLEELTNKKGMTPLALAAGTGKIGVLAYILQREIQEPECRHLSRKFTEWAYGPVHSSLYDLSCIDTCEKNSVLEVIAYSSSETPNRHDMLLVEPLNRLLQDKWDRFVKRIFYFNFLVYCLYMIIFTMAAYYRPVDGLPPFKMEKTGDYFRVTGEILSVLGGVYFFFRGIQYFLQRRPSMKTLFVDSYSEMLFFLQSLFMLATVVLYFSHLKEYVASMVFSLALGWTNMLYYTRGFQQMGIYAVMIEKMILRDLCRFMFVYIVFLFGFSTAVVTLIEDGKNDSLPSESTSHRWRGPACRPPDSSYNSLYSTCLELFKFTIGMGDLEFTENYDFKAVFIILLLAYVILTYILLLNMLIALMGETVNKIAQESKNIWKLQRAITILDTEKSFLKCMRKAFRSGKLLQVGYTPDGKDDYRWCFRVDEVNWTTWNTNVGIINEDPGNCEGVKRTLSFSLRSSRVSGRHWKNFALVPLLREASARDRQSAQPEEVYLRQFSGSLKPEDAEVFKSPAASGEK
T6 sequence (Q8R455 whole entry): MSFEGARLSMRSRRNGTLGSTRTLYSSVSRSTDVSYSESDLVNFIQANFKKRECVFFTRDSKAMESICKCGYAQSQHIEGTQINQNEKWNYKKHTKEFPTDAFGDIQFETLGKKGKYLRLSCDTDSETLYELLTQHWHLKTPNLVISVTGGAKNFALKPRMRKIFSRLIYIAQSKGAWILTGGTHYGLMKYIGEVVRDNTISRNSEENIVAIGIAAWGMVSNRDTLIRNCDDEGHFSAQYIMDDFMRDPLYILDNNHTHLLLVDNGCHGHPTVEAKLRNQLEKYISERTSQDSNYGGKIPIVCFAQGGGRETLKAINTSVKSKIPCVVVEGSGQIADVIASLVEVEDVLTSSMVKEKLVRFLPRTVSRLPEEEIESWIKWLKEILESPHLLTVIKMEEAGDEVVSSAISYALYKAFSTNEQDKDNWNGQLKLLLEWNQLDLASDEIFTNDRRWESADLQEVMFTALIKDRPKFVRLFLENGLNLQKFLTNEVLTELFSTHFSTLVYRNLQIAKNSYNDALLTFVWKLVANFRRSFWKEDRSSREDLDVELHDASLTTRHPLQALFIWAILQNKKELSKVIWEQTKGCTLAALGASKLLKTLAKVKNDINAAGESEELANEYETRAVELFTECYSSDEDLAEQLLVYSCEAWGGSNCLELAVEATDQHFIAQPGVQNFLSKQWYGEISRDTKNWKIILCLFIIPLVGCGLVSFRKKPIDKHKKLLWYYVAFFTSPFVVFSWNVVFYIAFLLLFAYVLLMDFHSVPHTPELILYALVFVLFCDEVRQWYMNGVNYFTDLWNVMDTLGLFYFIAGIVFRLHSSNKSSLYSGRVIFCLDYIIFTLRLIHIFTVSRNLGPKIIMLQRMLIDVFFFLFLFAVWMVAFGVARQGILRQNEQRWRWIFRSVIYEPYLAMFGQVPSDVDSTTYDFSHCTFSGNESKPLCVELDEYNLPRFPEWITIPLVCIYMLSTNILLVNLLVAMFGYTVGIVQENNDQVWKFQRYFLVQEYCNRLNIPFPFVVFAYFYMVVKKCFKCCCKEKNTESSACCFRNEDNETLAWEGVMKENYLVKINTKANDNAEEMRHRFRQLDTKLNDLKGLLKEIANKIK

In the case of CCCCCc1cc(O)c(C/C=C(\C)CCC=C(C)C)c(O)c1 [7a, cannabigerol], the “TRPA1 Efficacy (%ITC 100 μM)” value (rat TRPA1 [1]) is given as 99.9 ± 1.1%, the “IC50 TRPV1” value (human TRPV1 [2]; against agonist capsaicin 0.1 μM; cited from earlier work) is given as “sub/low micromolar range” and the “TRPV1 Efficacy (% IM 4 μM)” value (human TRPV1 [2]; [7]) is given as 33.8 ± 2.3%. For the same molecule, the “TRPV2 Efficacy (% IM 4 μM)” value (rat TRPV2) was 73.6 ± 1.2%, the “TRPV4 Efficacy (% IM 4 μM)” value (rat TRPV4; [7]) was 23.7 ± 1.8% and the IC50 (rat TRPV4; read-out: IC50 TRPV4; against agonist GSK1016790A 10 nM; cited from earlier work) was 1.3 µM. For the same molecule, the EC50 (rat TRPV4; read-out: TRPV4 Potency EC50; half-maximal increase in [Ca2+]i; cited from earlier work) was 5.1 µM, the IC50 (rat TRPV3; against agonist thymol 100 μM; read-out: IC50 TRPV3; cited from earlier work) was greater than 50 µM and the EC50 (rat TRPV3; half-maximal increase in [Ca2+]i; read-out: TRPV3 Potency EC50 (converted); cited from earlier work) was 1 µM. The “TRPV3 Efficacy (% IM 4 μM)” value (rat TRPV3; [7]) was 18.5 ± 0.7%.
For CCCCCc1cc(O)c2c(c1)OC(C)(CCC=C(C)C)C=C2 (stereo not drawn) [8a, cannabichromene], the IC50 (rat TRPA1 [1]; read-out: IC50 TRPA1 (converted)) is listed as 0.37 µM, the “TRPA1 Efficacy (%ITC 100 μM)” value (rat TRPA1 [1]) is listed as 119.4 ± 3.1% and the IC50 (human TRPV1 [2]; against agonist capsaicin 0.1 μM; read-out: IC50 TRPV1; cited from earlier work) is listed as greater than 50 µM. The “TRPV1 Efficacy (% IM 4 μM)” value (human TRPV1 [2]; [7]) was less than 10%, the IC50 (rat TRPM8 [3]) was 40.7 µM and the IC50 (rat TRPV2; against agonist CBD 2 μM, read-out: IC50 TRPV2 (converted)) was 6.5 µM. For the same molecule, the “TRPV2 Efficacy (% IM 4 μM)” value (rat TRPV2) was less than 10%, the IC50 (rat TRPV4; against agonist GSK1016790A 10 nM; read-out: IC50 TRPV4; cited from earlier work) was 9.9 µM and the EC50 (rat TRPV4; half-maximal increase in [Ca2+]i; read-out: TRPV4 Potency EC50; cited from earlier work) was 0.6 µM. For the same molecule, the “TRPV4 Efficacy (% IM 4 μM)” value (rat TRPV4; [7]) was 22.9 ± 1.2%, the “TRPV3 Efficacy (% IM 4 μM)” value (rat TRPV3; [7]) was 20.2 ± 0.4% and the IC50 (rat TRPV3; read-out: IC50 TRPV3; against agonist thymol 100 μM; cited from earlier work) was greater than 100 µM. For the same molecule, the EC50 (rat TRPV3; read-out: TRPV3 Potency EC50; half-maximal increase in [Ca2+]i; cited from earlier work) was 1.9 µM.
In the case of CCCCCc1cc(O)c2c(c1)OC(C)(C)c1ccc(C)cc1-2 [9a, cannabinol], the “TRPA1 Efficacy (%ITC 100 μM)” value (rat TRPA1 [1]) is given as 83.3 ± 12.0%, the IC50 (rat TRPA1 [1]; read-out: IC50 TRPA1) is given as 0.4 µM and the “TRPV1 Efficacy (% IM 4 μM)” value (human TRPV1 [2]; [7]) is given as <10 <10%. For the same molecule, the IC50 (human TRPV1 [2]; read-out: IC50 TRPV1; against agonist capsaicin 0.1 μM; cited from earlier work) was greater than 50 µM.
In the case of CCCCCCC(C)(C)c1cc(O)c2c(c1)OC(C)(C)c1ccc(C)cc1-2 [9b, Depentyl-α,α-dimethylheptyl-cannabinol], the IC50 (human TRPV1 [4]) is reported as greater than 100 µM, the “TRPV1 Efficacy (% IM 4 μM)” value (human TRPV1 [4]; percentage of the response to ionomycin 4 μM, HEK-293) is reported as <10 <10% and the IC50 (rat TRPM8 [5]) is reported as 0.98 ± 0.12 µM. For the same molecule, the EC50 (rat TRPA1 [6]) was 2.1 ± 0.9 µM, the IC50 (rat TRPA1 [6]) was 3.2 ± 0.6 µM and the “TRPA1 Efficacy (%ITC 100 μM)” value (rat TRPA1 [6]; percentage of the effect of 100 μM allylisothiocyanate on [Ca2+]i, HEK-293) was 132.3 ± 7.9%.
